Earlier results as cited in patent US7842730B2, “Medical emulsion of perfluororganic compounds and method for the production thereof” (priority 2004, dated 2010).

Key:
[1] = for P, vapor pressure: 37°; for Vapor pressure: 37° C., Table 3
[2] = for Tcritical (critical solution temperature in hexane): Table 1; for Critical solution temperature, (Tcritical): Table 3
[3] = 37° C.

Compound: CCCN1CCCCC1C (stereo not drawn) [1-propyl-2-methylpiperidine]
- P, vapor pressure [1]: 19 mm QS
- Tcritical (critical solution temperature in hexane) [2]: 35 °C

Compound: FC1(F)C(F)(F)C(F)(F)C2(F)C(F)(F)C(F)(F)C(F)(F)C(F)(F)C2(F)C1(F)F (stereo not drawn) [PFD, perfluorodecaline]
- Oxygen solubility [3]: 40 ml/100 ml (vol.-%)
- P, vapor pressure [1]: 12 mm QS
- Vapor pressure [1]: 12.7 mm QS
- t1/2 (elimination from the organism): ~170 h
- Tcritical (critical solution temperature in hexane) [2]: 22 °C
- Critical solution temperature, (Tcritical) [2]: 22 °C

Compound: FC(F)(F)C(F)(F)C(F)(F)C(F)(F)C(F)(F)C(F)(F)C(F)(F)C(F)(F)C(F)(F)C(F)(F)Br [PFDB, Perfluorodecylbromide]
- Vapor pressure [1]: 1.5 mm QS
- Critical solution temperature, (Tcritical) [2]: 7 °C

Compound: FC(F)(F)C(F)(F)C(F)(F)C(F)(F)C(F)(F)C(F)(F)C(F)(F)C(F)(F)Br [PFOB, perfluorooctylbromide]
- Oxygen solubility [3]: 53 ml/100 ml (vol.-%)
- Vapor pressure [1]: 10.5 mm QS
- t1/2 (elimination from the organism): ~96 h
- Critical solution temperature, (Tcritical) [2]: −20 °C

Compound: FC(F)(F)C(F)(F)C(F)(F)N(C(F)(F)C(F)(F)C(F)(F)F)C(F)(F)C(F)(F)C(F)(F)F [PFTPA, perfluorotripropylamine]
- Oxygen solubility [3]: 45 ml/100 ml (vol.-%)
- P, vapor pressure [1]: 17 mm QS
- Vapor pressure [1]: 18.0 mm QS
- Tcritical (critical solution temperature in hexane) [2]: 43 °C
- Critical solution temperature, (Tcritical) [2]: 44 °C

Compound: C1CCC2CCCC2C1 (stereo not drawn) [bicyclo[4.3.0]nonane]
- P, vapor pressure [1]: 33 mm QS
- Tcritical (critical solution temperature in hexane) [2]: 13 °C

Compound: C1CC2CCCC3CCC(C1)C23 (stereo not drawn) [decahydroacenaphthene]
- P, vapor pressure [1]: 2 mm QS
- Tcritical (critical solution temperature in hexane) [2]: 24 °C

Compound: CCCCCCOCCCCCC [dihexylether]
- P, vapor pressure [1]: 2 mm QS
- Tcritical (critical solution temperature in hexane) [2]: 59 °C

Compound: perfluoromethylcyclohexylpiperidine [PFMHP]
- Oxygen solubility [3]: 40 ml/100 ml (vol.-%)
- P, vapor pressure [1]: 1 mm QS
- Vapor pressure [1]: 2.0 mm QS
- Tcritical (critical solution temperature in hexane) [2]: 38 °C
- Critical solution temperature, (Tcritical) [2]: 40 °C
